Like-named read-outs stand apart in the source and are kept apart here.
Tests used:
Assay type in all cases: cell-based
S. epidermidis = system: S. epidermidis
E. faecium = system: E. faecium
E. cloacae = E. cloacae strain ECL007
A. calcoaceticus = system: A. calcoaceticus
S. maltophilia = system: S. maltophilia
K. pneumoniae = system: K. pneumoniae
E. coli = system: E. coli
E. faecalis = system: E. faecalis
P. aeruginosa = system: P. aeruginosa
S. marcescens = system: S. marcescens
S. aureus = system: S. aureus
bacterial isolates = experiment: microbe, parasite or virus in culture; conditions: combination with Ciprofloxacin

## ILKKFPFWPWRRK [MBI 11A7CN]
S. epidermidis; S. epidermidis strain SE010
  MIC: 4 µg/mL
E. faecium; E. faecium strain EFM003
  MIC: 2 µg/mL
E. cloacae
  MIC: >128 µg/mL
A. calcoaceticus; A. calcoaceticus strain AC002
  MIC: 4 µg/mL
S. maltophilia; S. maltophilia strain SMA002
  MIC: 64 µg/mL
K. pneumoniae; K. pneumoniae strain KP001
  MIC: 8 µg/mL
E. coli; E. coli strain ECO005
  MIC: 8 µg/mL
E. faecalis; E. faecalis strain EFS001
  MIC: 2 µg/mL
E. faecalis; E. faecalis strain EFS002
  MIC: 16 µg/mL
E. faecalis; E. faecalis strain EFS008
  MIC: 4 µg/mL
P. aeruginosa; P. aeruginosa strain PA004
  MIC: >128 µg/mL
S. marcescens; S. marcescens strain SMS003
  MIC: >128 µg/mL
S. aureus; S. aureus strain SA009
  MIC: 2 µg/mL
S. aureus; S. aureus strain SA014
  MIC: 4 µg/mL
S. aureus; S. aureus strain SA093
  MIC: 1 µg/mL

## ILKKFPWFPWRRK [MBI 11A6CN]
S. epidermidis; S. epidermidis strain SE010
  MIC: 4 µg/mL
E. faecium; E. faecium EFM003
  MIC: 2 µg/mL
E. cloacae
  MIC: >128 µg/mL
A. calcoaceticus; A. calcoaceticus strain AC002
  MIC: 2 µg/mL
S. maltophilia; S. maltophilia strain SMA002
  MIC: 128 µg/mL
K. pneumoniae; K. pneumoniae strain KP001
  MIC: 32 µg/mL
E. coli; E. coli strain ECO005
  MIC: 16 µg/mL
E. faecalis; E. faecalis EFS004
  MIC: 64 µg/mL
E. faecalis; E. faecalis strain EFS001
  MIC: 1 µg/mL
E. faecalis; E. faecalis strain EFS008
  MIC: 8 µg/mL
P. aeruginosa; P. aeruginosa strain PA004
  MIC: >128 µg/mL
S. marcescens; S. marcescens strain SMS003
  MIC: >128 µg/mL
S. aureus; S. aureus SA016
  MIC: 2 µg/mL
S. aureus; S. aureus strain SA014
  MIC: 4 µg/mL
S. aureus; S. aureus strain SA093
  MIC: 0.5 µg/mL

## ILKKIPIIPIRRK [MBI 11A2CN]
E. faecium; E. faecium strain EFM003
  MIC: 16 µg/mL
E. cloacae
  MIC: >128 µg/mL
A. calcoaceticus; A. calcoaceticus strain AC001
  MIC: >128 µg/mL
Bacterial isolates; S. aureus SA014
  FIC: 1.00
Bacterial isolates; S. aureus SA093
  FIC: 0.75
S. maltophilia; S. maltophilia strain SMA001
  MIC: >128 µg/mL
K. pneumoniae; K. pneumoniae strain KP002
  MIC: >128 µg/mL
E. coli; E. coli strain ECO003
  MIC: >128 µg/mL
E. faecalis; E. faecalis strain EFS002
  MIC: >128 µg/mL
P. aeruginosa; P. aeruginosa strain PA004
  MIC: >128 µg/mL
S. marcescens; S. marcescens strain SBS003
  MIC: >128 µg/mL
S. aureus; S. aureus strain SA004
  MIC: 8 µg/mL

## ILKKWAWWPWRRK [MBI 11C3CN]
S. epidermidis; S. epidermidis strain SE002
  MIC: 2 µg/mL
E. faecium; E. faecium strain EFM002
  MIC: 1 µg/mL
E. cloacae
  MIC: >128 µg/mL
A. calcoaceticus; A. calcoaceticus strain AC002
  MIC: 4 µg/mL
S. maltophilia; S. maltophilia strain SMA002
  MIC: 64 µg/mL
K. pneumoniae; K. pneumoniae strain KP001
  MIC: 128 µg/mL
E. coli; E. coli strain ECO002
  MIC: 16 µg/mL
E. faecalis; E. faecalis strain EFS002
  MIC: 32 µg/mL
P. aeruginosa; P. aeruginosa strain PA005
  MIC: >128 µg/mL
S. marcescens; S. marcescens strain SMS004
  MIC: >128 µg/mL
S. aureus; S. aureus strain SA005
  MIC: 2 µg/mL

## ILKKWPWPWRRK [MBI 11A4CN]
S. epidermidis; S. epidermidis strain SE002
  MIC: 8 µg/mL
E. faecium; E. faecium strain EFM001
  MIC: 32 µg/mL
E. cloacae
  MIC: >128 µg/mL
A. calcoaceticus; A. calcoaceticus strain AC002
  MIC: 8 µg/mL
S. maltophilia; S. maltophilia strain SMA002
  MIC: >128 µg/mL
K. pneumoniae; K. pneumoniae strain KP001
  MIC: >128 µg/mL
E. coli; E. coli strain ECO003
  MIC: 32 µg/mL
E. faecalis; E. faecalis strain EFS002
  MIC: 64 µg/mL
P. aeruginosa; P. aeruginosa strain PA004
  MIC: >128 µg/mL
S. marcescens; S. marcescens strain SMS004
  MIC: >128 µg/mL
S. aureus; S. aureus strain SA005
  MIC: 2 µg/mL

## ILKKWPWW PWKKK [MBI 11B10CN]
S. epidermidis; S. epidermidis strain SE010
  MIC: 4 µg/mL
E. faecium; E. faecium strain EFM003
  MIC: 4 µg/mL
E. cloacae
  MIC: >128 µg/mL
A. calcoaceticus; A. calcoaceticus strain AC002
  MIC: 2 µg/mL
S. maltophilia; S. maltophilia strain SMA002
  MIC: 128 µg/mL
K. pneumoniae; K. pneumoniae strain KP001
  MIC: 32 µg/mL
E. coli; E. coli strain ECO005
  MIC: 16 µg/mL
E. faecalis; E. faecalis strain EFS001
  MIC: 8 µg/mL
E. faecalis; E. faecalis strain EFS002
  MIC: 64 µg/mL
E. faecalis; E. faecalis strain EFS008
  MIC: 64 µg/mL
P. aeruginosa; P. aeruginosa strain PA004
  MIC: >128 µg/mL
S. marcescens; S. marcescens strain SMS003
  MIC: >128 µg/mL
S. aureus; S. aureus strain SA008
  MIC: 2 µg/mL
S. aureus; S. aureus strain SA014
  MIC: 4 µg/mL
S. aureus; S. aureus strain SA093
  MIC: 1 µg/mL

## ILKKWPWWAWRRK [MBI 11C4CN]
S. epidermidis; S. epidermidis strain SE002
  MIC: 4 µg/mL
E. faecium; E. faecium strain EFM003
  MIC: 2 µg/mL
E. cloacae
  MIC: >128 µg/mL
A. calcoaceticus; A. calcoaceticus strain AC002
  MIC: 4 µg/mL
S. maltophilia; S. maltophilia strain SMA002
  MIC: 64 µg/mL
K. pneumoniae; K. pneumoniae strain KP001
  MIC: >128 µg/mL
E. coli; E. coli strain ECO005
  MIC: 32 µg/mL
E. faecalis; E. faecalis strain EFS002
  MIC: 32 µg/mL
P. aeruginosa; P. aeruginosa strain PA005
  MIC: >128 µg/mL
S. marcescens; S. marcescens strain SMS004
  MIC: >128 µg/mL
S. aureus; S. aureus strain SA009
  MIC: 4 µg/mL

## ILKKWPWWPRRK [MBI 11G6CN]
S. epidermidis; S. epidermidis strain SE002
  MIC: 8 µg/mL
E. faecium; E. faecium strain EFM003
  MIC: 4 µg/mL
E. cloacae
  MIC: >128 µg/mL
A. calcoaceticus; A. calcoaceticus strain AC001
  MIC: >128 µg/mL
S. maltophilia; S. maltophilia strain SMA001
  MIC: >128 µg/mL
K. pneumoniae; K. pneumoniae strain KP001
  MIC: >128 µg/mL
E. coli; E. coli strain ECO002
  MIC: 32 µg/mL
E. faecalis; E. faecalis strain EFS002
  MIC: 128 µg/mL
P. aeruginosa; P. aeruginosa strain PA004
  MIC: >128 µg/mL
S. marcescens; S. marcescens strain SMS003
  MIC: >128 µg/mL
S. aureus; S. aureus strain SA006
  MIC: 2 µg/mL

## ILKKWPWWPWR [MBI 11G14CN]
S. epidermidis; S. epidermidis strain SE002
  MIC: 8 µg/mL
E. faecium; E. faecium strain EFM001
  MIC: 16 µg/mL
E. cloacae
  MIC: >128 µg/mL
A. calcoaceticus; A. calcoaceticus strain AC002
  MIC: 8 µg/mL
S. maltophilia; S. maltophilia strain SMA002
  MIC: 128 µg/mL
K. pneumoniae; K. pneumoniae strain KP002
  MIC: 128 µg/mL
E. coli; E. coli strain ECO003
  MIC: 32 µg/mL
E. faecalis; E. faecalis strain EFS002
  MIC: 32 µg/mL
P. aeruginosa; P. aeruginosa strain PA006
  MIC: >128 µg/mL
S. marcescens; S. marcescens strain SMS004
  MIC: >128 µg/mL
S. aureus; S. aureus strain SA013
  MIC: 0.5 µg/mL

## ILKKWPWWPWRRIMILKKAGS [MBI 11D6CN]
S. epidermidis; S. epidermidis strain SE010
  MIC: 4 µg/mL
E. faecium; E. faecium strain EFM003
  MIC: 1 µg/mL
E. cloacae
  MIC: >32 µg/mL
A. calcoaceticus; A. calcoaceticus strain AC002
  MIC: 4 µg/mL
S. maltophilia; S. maltophilia strain SMA001
  MIC: >64 µg/mL
K. pneumoniae; K. pneumoniae strain KP002
  MIC: >64 µg/mL
E. coli; E. coli strain ECO002
  MIC: 32 µg/mL
E. faecalis; E. faecalis strain EFS002
  MIC: 4 µg/mL
P. aeruginosa; P. aeruginosa strain PA024
  MIC: >64 µg/mL
S. marcescens; S. marcescens strain SMS004
  MIC: >64 µg/mL
S. aureus; S. aureus strain SA009
  MIC: 8 µg/mL

## ILKKWPWWPWRRK [MBI 11E2CN]
S. epidermidis; S. epidermidis strain SE010
  MIC: 4 µg/mL
E. faecium; E. faecium strain EFM001
  MIC: 16 µg/mL
E. cloacae
  MIC: >128 µg/mL
A. calcoaceticus; A. calcoaceticus strain AC002
  MIC: 4 µg/mL
S. maltophilia; S. maltophilia strain SMA001
  MIC: 64 µg/mL
K. pneumoniae; K. pneumoniae strain KP002
  MIC: 64 µg/mL
E. coli; E. coli strain ECO002
  MIC: 8 µg/mL
E. faecalis; E. faecalis strain EFS002
  MIC: 32 µg/mL
P. aeruginosa; P. aeruginosa strain PA001
  MIC: >128 µg/mL
S. marcescens; S. marcescens strain SMS004
  MIC: >128 µg/mL
S. aureus; S. aureus strain SA016
  MIC: 2 µg/mL

## ILKKWPWWVWRRK [MBI 11F2CN]
S. epidermidis; S. epidermidis strain SE002
  MIC: 4 µg/mL
E. faecium; E. faecium strain EFM002
  MIC: 4 µg/mL
A. calcoaceticus; A. calcoaceticus strain AC002
  MIC: 4 µg/mL
S. maltophilia; S. maltophilia strain SMA002
  MIC: 64 µg/mL
K. pneumoniae; K. pneumoniae strain KP002
  MIC: 128 µg/mL
E. coli; E. coli strain ECO002
  MIC: 8 µg/mL
E. faecalis; E. faecalis strain EFS002
  MIC: 32 µg/mL
P. aeruginosa; P. aeruginosa strain PA005
  MIC: >128 µg/mL
S. marcescens; S. marcescens strain SMS004
  MIC: >128 µg/mL
S. aureus; S. aureus strain SA012
  MIC: 4 µg/mL

## ILKKWPWWWRRK [MBI 11G5CN]
S. epidermidis; S. epidermidis strain SE002
  MIC: 2 µg/mL
E. faecium; E. faecium strain EFM002
  MIC: 8 µg/mL
E. cloacae
  MIC: >128 µg/mL
A. calcoaceticus; A. calcoaceticus strain AC002
  MIC: 4 µg/mL
S. maltophilia; S. maltophilia strain SMA002
  MIC: 64 µg/mL
K. pneumoniae; K. pneumoniae strain KP001
  MIC: >128 µg/mL
E. coli; E. coli strain ECO003
  MIC: 16 µg/mL
E. faecalis; E. faecalis strain EFS002
  MIC: 16 µg/mL
P. aeruginosa; P. aeruginosa strain PA003
  MIC: >128 µg/mL
S. marcescens; S. marcescens strain SMS004
  MIC: >128 µg/mL
S. aureus; S. aureus strain SA012
  MIC: 4 µg/mL

## ILKNPNNPWRR [MBI 11G7ACN]
S. epidermidis; S. epidermidis strain SE002
  MIC: 4 µg/mL
E. faecium; E. faecium strain EFM001
  MIC: 8 µg/mL
E. cloacae
  MIC: >32 µg/mL
A. calcoaceticus; A. calcoaceticus strain AC002
  MIC: 4 µg/mL
S. maltophilia; S. maltophilia strain SMA001
  MIC: 32 µg/mL
K. pneumoniae; K. pneumoniae strain KP002
  MIC: >32 µg/mL
E. coli; E. coli strain ECO002
  MIC: 16 µg/mL
E. faecalis; E. faecalis strain EFS008
  MIC: 32 µg/mL
P. aeruginosa; P. aeruginosa strain PA006
  MIC: >32 µg/mL
S. marcescens; S. marcescens strain SMS004
  MIC: >32 µg/mL
S. aureus; S. aureus strain SA010
  MIC: 1 µg/mL

## PWWPWRRK [MBI 11D3CN]
E. faecium; E. faecium strain EFM003
  MIC: 8 µg/mL
E. cloacae
  MIC: >128 µg/mL
A. calcoaceticus; A. calcoaceticus strain AC001
  MIC: >128 µg/mL
S. maltophilia; S. maltophilia strain SMA001
  MIC: 64 µg/mL
K. pneumoniae; K. pneumoniae strain KP002
  MIC: >128 µg/mL
E. coli; E. coli strain ECO002
  MIC: 64 µg/mL
E. faecalis; E. faecalis strain EFS002
  MIC: 32 µg/mL
P. aeruginosa; P. aeruginosa strain PA024
  MIC: >128 µg/mL
S. marcescens; S. marcescens strain SMS004
  MIC: >128 µg/mL
S. aureus; S. aureus strain SA009
  MIC: 8 µg/mL
